Laboratory results as given in patent publication US20260049089A1, “KRAS INHIBITOR COMPOUND” (SHANGHAI APEIRON THERAPEUTICS COMPANY LIMITED, priority 2022, published 2026).
Where two headings read alike, the source gives them in different places.

Tests used:
[1] = the molecule shown is the open-chain precursor
[2] = biological target: KRAS G12D GDP protein (His-tag-KRAS G12D) (Homo sapiens (Human), UniProt P01116, G12D); experiment: AlphaLISA compound screening assay, KRAS-GDP protein format; settings: AlphaLISA with SOS1, GTP, cRAF, read-out: GDP-format IC50 (nM)/ Binding assay
KRAS G12D GDP protein (His-tag-KRAS G12D), sequence (P01116-2 other isoform, or with tags, fused parts or gaps G12D): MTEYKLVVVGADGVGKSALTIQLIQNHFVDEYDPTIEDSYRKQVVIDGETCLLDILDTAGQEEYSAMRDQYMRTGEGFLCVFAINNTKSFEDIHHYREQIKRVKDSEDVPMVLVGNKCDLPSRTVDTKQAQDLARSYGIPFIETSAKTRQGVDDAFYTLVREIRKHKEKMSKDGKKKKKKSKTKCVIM
Protocol: • Buffer 1: Composition and final concentrations: 25 mM HEPES, pH 7.5; 10 mM MgCl2; 0.01% Triton X-100. • Buffer 2: Composition and final concentrations: 25 mM HEPES, pH 7.5; 10 mM MgCl2; 0.01% Triton X-100; 1 mM DTT.
• 4> Use the ECHO555 automated liquid handler to prepare compounds. Test concentrations: The maximum compound concentration is 10 μM or 1 μM, serially diluted 3-fold, with 10 concentrations tested. Each concentration is tested in duplicate, with 0.5% DMSO as the solvent. • 5> High Signal Control Group (High Control): 30 replicates with 0.5% DMSO. KRAS protein is included in the reaction, representing 0% inhibition • 6> Low Signal Control Group (Low Control): 30 replicates with 0.5% DMSO. KRAS protein is not involved in the reaction, representing 100% inhibition
d. KRAS-GDP Protein Assay Procedure • 6> Add 5 μL of KRAS solution prepared with Buffer 1 to each well of the high-signal control group and compound test wells. Add 5 μL of Buffer 1 to each well of the low-signal control group. […] Incubate at room temperature for 1 hour. • 10> Measure the signal values using an EnVision plate reader. […] Incubate at room temperature for 1 hour. • 10> Measure the signal values using an EnVision plate reader. […] Incubate at room temperature for 1 hour. • 10> Measure the signal values using an EnVision plate reader. […]

[3] = biological target: KRAS G12D GTP protein (His-tag-KRAS G12D) (Homo sapiens (Human), UniProt P01116, G12D); experiment: AlphaLISA compound screening assay, KRAS-GTP protein format; settings: AlphaLISA with cRAF, read-out: GTP-format IC50 (nM)/ Binding assay
KRAS G12D GTP protein (His-tag-KRAS G12D), sequence (P01116-2 other isoform, or with tags, fused parts or gaps G12D): as above

[4] = biological target: KRAS G12D GCP protein (His-tag-KRAS G12D) (Homo sapiens (Human), UniProt P01116, G12D); experiment: AlphaLISA compound screening assay, KRAS-GCP protein format; settings: AlphaLISA with cRAF, read-out: GCP-format IC50 (nM)/ Binding assay
KRAS G12D GCP protein (His-tag-KRAS G12D), sequence (P01116-2 other isoform, or with tags, fused parts or gaps G12D): as above

[5] = test system: AGS cells; experiment: 3D cell proliferation assay (CellTiter-Glo 3D), AGS; assay type: cell-based; settings: 5 days, read-out: 3D Proliferation Inhibition AGS_IC50
Protocol: (§1) Using a nanoliter liquid handling system (LABCYTE, P-0200), the diluted test compounds were added to a 384-well low-adsorption cell culture plate. Cells were seeded into the wells, and the plate was placed in an incubator at 37° C. with 5% CO2. After co-incubating the compounds and cells for 5 days, CellTiter-Glo® 3D reagent was added. Luminescence values were measured using an EnVision Multilabel Plate Reader (luminescence is proportional to the ATP content in the system, and ATP content directly reflects the number of viable cells). Finally, the IC50 values (half-maximal inhibitory concentrations) of the compounds were determined using non-linear fitting equations in XLFit software with the following parameters: […]
(§2) X: Logarithm of compound concentration • Y: Inhibition rate (%)
(§3) [formula] • Negative control: DMSO • Positive control: Medium only

[6] = test system: AsPC-1 cells; experiment: 3D cell proliferation assay (CellTiter-Glo 3D), AsPC-1; assay type: cell-based; settings: 5 days, read-out: 3D Proliferation Inhibition AsPC-1_IC50
Protocol: as §1, §2, §3

[7] = test system: pERK in AGS cells; experiment: ERK phosphorylation cell assay, AGS; assay type: cell-based; settings: 3 hours compound incubation, read-out: pERK AGS_IC50
Outline: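 AGS […] cells, seeded overnight, were treated with compound for 3 hours at 37° C. pERK was detected by in-cell immunofluorescence, with GAPDH as normalizer, using 800CW/680RD secondary antibodies. Mean relative p-ERK levels were fitted against log concentration, with DMSO as negative and 10 μM Reference as positive control.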

[8] = test system: pERK in AsPC-1 cells; experiment: ERK phosphorylation cell assay, AsPC-1; assay type: cell-based; settings: read-out: pERK AsPC-1_IC50
[9] = Homo sapiens, ASPC1, AsPC-1 cells

| Compound | IC50 [2] [nM] | IC50 [3] [nM] | IC50 [4] [nM] | IC50 ([5]; Homo sapiens, AGS, 120 h) [nM] | IC50 ([6]; Homo sapiens, ASPC1, 120 h) [nM] | IC50 ([7]; Homo sapiens, AGS, 3 h) [nM] | IC50 [8, 9] [nM] | also measured |
| --- | --- | --- | --- | --- | --- | --- | --- | --- |
| C#CCCCCC(=O)Nc1cc2c(N3C[C@H]4CC[C@@H](C3)N4C(=O)OC(C)(C)C)nc(OCC(F)(F)F)nc2c(F)c1-c1cc(OCOC)cc2ccc(F)c(C#C)c12 |  |  |  |  |  |  |  | ring closure, isolated yield ([1]; cc_pd bond, 15-membered ring, PdCl2(PPh3)2/CuI/I2, toluene/iPr2NH 1:1, 1.1 mM, 80.0 °C): 53% |
| O=C1CCCCCCCCCc2c(F)ccc3cc(O)cc(c23)-c2c(cc3c(N4CC5CCC(C4)N5)nc(OC[C@@]45CCCN4C[C@H](F)C5)nc3c2F)N1 [Example 11, 16-((1R,5S)-3,8-diazabicyclo[3.2.1]octan-3-yl)-3,20-difluoro-18-(((2R,7aS)-2-fluorotetrahydro-1H-pyrazin-7a(5H)-yl)methoxy)-22-hydroxy-5,6,7,8,9,10,11,12-octahydro-4H-naphtho[1′,8′:4,5,61][1]azacyclohexadecano[2,3-g]quinazolin-13(14H)-one] | 500 | 726 | 909 |  |  |  |  |  |
| O=C1CCCCCc2c(F)ccc3cc(O)cc(c23)-c2c(cc3c(N4CC5CCC(C4)N5)nc(OC[C@@]45CCCN4C[C@H](F)C5)nc3c2F)N1 [Example 9B, 12-((1R,5S)-3,8-diazabicyclo[3.2.1]octan-3-yl)-3,16-difluoro-14-(((2R,7aS)-2-fluorotetrahydro-1H-pyrazin-7a(5H)-yl)methoxy)-18-hydroxy-5,6,7,8-tetrahydro-4H-naphtho[1′,8′:4,5,6][1]azacyclododecino[2,3-g]quinazolin-9(10H)-one] | 1.6 | 1.95 | 58.5 |  |  |  |  | IC50 [5]: 93 nM; IC50 [6]: 222 nM; IC50 [7]: 17 nM; IC50 ([8]; AsPC-1 cells): 70 nM |
| COCOc1cc(-c2c(NC(=O)OCc3ccccc3)cc3c(N4C[C@H]5CC[C@@H](C4)N5C(=O)OC(C)(C)C)nc(OCC(F)(F)F)nc3c2F)c2c(CCCCCCO)c(F)ccc2c1 |  |  |  |  |  |  |  | ring closure, isolated yield ([1]; amine bond, 12-membered ring, PPh3/DIAD, THF, 32.5 mM, 65.0 °C): 34% |
| C[C@@]1(O)CCCN(c2nc(OC[C@@]34CCCN3C[C@H](F)C4)nc3c(F)c4c(cc23)NCCCCCc2c(F)ccc3cc(O)cc-4c23)C1 [Example 16, 3,15-difluoro-13-(((2R,7aS)-2-fluorotetrahydro-1H-pyrrolidin-7a(5H)-yl)methoxy)-11-((R)-3-hydroxy-3-methylpiperidin-1-yl)-4,5,6,7,8,9-hexahydronaphthol[1′,8′:4,5,6][1]azacycloundecane [2,3-g]quinazolin-17-ol] |  |  |  | 83 | 288 | 31 | 102 |  |
| C=C1CN2CCC[C@@]2(COc2nc(N3CCC[C@@](C)(O)C3)c3cc4c(c(F)c3n2)-c2cc(N)cc3ccc(F)c(c23)CCOCCN4C)C1 [Example 56, (R)-1-(17-amino-3,15-difluoro-9-methyl-13-(((S)-2-methylenetetrahydro-1H-pyrazin-7a(5H)-yl)methoxy)-4,5,8,9-tetrahydro-7H-naphtho[1′,8′:7,8,9][1]oxa[4]azacycloundeca[5,6-g]quinazoline-11-yl)-3-methylpiperidin-3-ol] |  |  |  | 668 | 1460 | 206 | 707 |  |
